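All cell lines were grown in 96-well plates and treated with compound for 48 hours. Definition used: TGI = concentration required for complete inhibition of growth.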
Legend:
Assay in all cases: inhibition of tumour cell growth, NCI panel, 48 h
786-0 renal = system: 786-0 renal
A498 renal = system: A498 renal
A549 NSCLC = system: A549 NSCLC
ACHN renal = system: ACHN renal
BT-549 breast = system: BT-549 breast
CAKI-1 renal = system: CAKI-1 renal
CCRF-CEM leukemia = system: CCRF-CEM leukemia
COLO 205 colon = system: COLO 205 colon
DU-145 prostate = system: DU-145 prostate
EKVX NSCLC = system: EKVX NSCLC
HCC-2998 colon = system: HCC-2998 colon
HCT-116 colon = system: HCT-116 colon
HCT-15 colon = system: HCT-15 colon
HL-60(TB) leukemia = system: HL-60(TB) leukemia
HOP-62 NSCLC = system: HOP-62 NSCLC
HS 578T breast = system: HS 578T breast
HT29 colon = system: HT29 colon
IGROV1 ovarian = system: IGROV1 ovarian
K-562 leukemia = system: K-562 leukemia
KM12 colon = system: KM12 colon
LOX IMVI melanoma = system: LOX IMVI melanoma
M14 melanoma = system: M14 melanoma
MALME-3M melanoma = system: MALME-3M melanoma
MCF7 breast = system: MCF7 breast
MDA-MB-231 breast = system: MDA-MB-231 breast
MDA-MB-435 = system: MDA-MB-435
MDA-N = system: MDA-N
MOLT-4 leukemia = system: MOLT-4 leukemia
NCI-H226 lung = system: NCI-H226 lung
NCI-H23 lung = system: NCI-H23 lung
NCI-H460 lung = system: NCI-H460 lung
NCI-H522 lung = system: NCI-H522 lung
NCI/ADR-RES ovarian = system: NCI/ADR-RES ovarian
OVCAR-3 ovarian = system: OVCAR-3 ovarian
OVCAR-4 ovarian = system: OVCAR-4 ovarian
OVCAR-5 ovarian = system: OVCAR-5 ovarian
OVCAR-8 ovarian = system: OVCAR-8 ovarian
PC-3 prostate = system: PC-3 prostate
RPMI-8226 leukemia = system: RPMI-8226 leukemia
RXF 393 renal = system: RXF 393 renal
SF-268 CNS = system: SF-268 CNS
SF-295 CNS = system: SF-295 CNS
SF-539 CNS = system: SF-539 CNS
SK-MEL-2 melanoma = system: SK-MEL-2 melanoma
SK-MEL-28 melanoma = system: SK-MEL-28 melanoma
SK-MEL-5 melanoma = system: SK-MEL-5 melanoma
SK-OV-3 ovarian = system: SK-OV-3 ovarian
SN12C renal = system: SN12C renal
SNB-19 CNS = system: SNB-19 CNS
SNB-75 CNS = system: SNB-75 CNS
SW-620 colon = system: SW-620 colon
T-47D breast = system: T-47D breast
TK-10 renal = system: TK-10 renal
U251 CNS = system: U251 CNS
UACC-257 melanoma = system: UACC-257 melanoma
UACC-62 melanoma = system: UACC-62 melanoma

Measured: TGI

CCCCC(Sc1cc(Cl)c(C)cc1S(=O)(=O)Nc1n[nH]c(N)n1)C(=O)OC (stereo unspecified)
> 10 µM: all assays above

Reference: PubChem BioAssay (NCI)
